Measurements taken from patent publication US6329498A, “Polypeptide transition metal salts and method of enhancing anti-HIV activity of polypeptide” (Seikagaku Corporation, priority 1996, dated 2001).
Where a SMILES comes first, the peptide text is derived from it.

What was measured:
[1] = system: human immunodeficiency virus (HIV); test: Anti-HIV activity: protection of HIV-infected MT-4 cells from cell death, MTT method; settings: for SI (CC50 /ED50): rough ratio of CC50 to EC50, MT-4 cells
Description: To a 96-well microtiter plate, HIV-infected MT-4 cells (2.5×10^4 cells/well, Multiplicity of infection (MOI): 0.001) was added immediately after the infection along with test materials in various concentrations. […] On the other hand, in order to know the cytotoxicity of the test substances on the MT-4 cells, virus-non-infected cells were cultured with the test materials in various concentrations as described above. […] And the rough ratio of CC50 to EC50 (CC50 /EC50) is expressed as an effective ratio (SI).

[2] = system: MT-4 cells; test: Cytotoxicity on virus-non-infected MT-4 cells, MTT method; format: cell-based; settings: 5 days at 37° C.
[3] = HIV-infected MT-4 cells, MOI 0.001, 5 days at 37° C., MTT method

Cc1cn([C@H]2C[C@H](N=[N+]=[N-])[C@@H](CO)O2)c(=O)[nH]c1=O [AZT, reference compound]
EC50 ([1]; read-out: EC50 (concentration to suppress 50% of cell death due to HIV infection), HIV-infected MT-4 cells, MOI 0.001, 5 days at 37° C., MTT method, unit μM printed with the compound): 0.0011 µM
SI (CC50 /ED50) [1]: 1716
CC50 (50% cytotoxic concentration) ([2]; unit μM printed with the compound): 1.93 µM

N=C(N)NCCC[C@H](NC(=O)[C@@H]1CSSC[C@H](NC(=O)[C@H](Cc2c[nH]c3ccccc23)NC(=O)[C@H](CCCNC(=N)N)NC(=O)[C@@H](N)CCCNC(=N)N)C(=O)N[C@@H](Cc2ccc(O)cc2)C(=O)N[C@@H](CCCNC(=N)N)C(=O)N[C@@H](CCCCN)C(=O)N[C@H]2CSSC[C@H](NC(=O)[C@H](Cc3ccc(O)cc3)NC(=O)CNC(=O)[C@H](CCCCN)NC(=O)[C@H](Cc3ccc(O)cc3)NC2=O)C(=O)N[C@@H](Cc2ccc(O)cc2)C(=O)N[C@@H](CCCNC(=N)N)C(=O)N[C@@H](CCCCN)C(=O)N1)C(N)=O [Polypeptide (1)] (HELM PEPTIDE1{R.R.W.C.Y.R.K.C.Y.K.G.Y.C.Y.R.K.C.R.[am]}$PEPTIDE1,PEPTIDE1,4:R3-17:R3|PEPTIDE1,PEPTIDE1,8:R3-13:R3$$$V2.0; bridges inferred)
EC50 (concentration to suppress 50% of cell death due to HIV infection) [1, 3]: 0.0047 µg/mL
CC50 (50% cytotoxic concentration) [2]: 41.53 µg/mL

N=C(N)NCCC[C@H](NC(=O)[C@@H]1CSSC[C@H](NC(=O)[C@H](Cc2c[nH]c3ccccc23)NC(=O)[C@H](CCCNC(=N)N)NC(=O)[C@@H](N)CCCNC(=N)N)C(=O)N[C@@H](Cc2ccc(O)cc2)C(=O)N[C@@H](CCCNC(=N)N)C(=O)N[C@@H](CCCCN)C(=O)N[C@H](CCCCN)C(=O)N2CCC[C@H]2C(=O)N[C@@H](Cc2ccc(O)cc2)C(=O)N[C@@H](CCCNC(=N)N)C(=O)N[C@@H](CCCCN)C(=O)N1)C(N)=O [Polypeptide (2), Arg-Arg-Trp-Cys-Tyr-Arg-Lys----------DLys-Pro-----------Tyr-Arg-Lys-Cys-Arg-NH2] (HELM PEPTIDE1{R.R.W.C.Y.R.K.[dK].P.Y.R.K.C.R.[am]}$PEPTIDE1,PEPTIDE1,4:R3-13:R3$$$V2.0)
EC50 (concentration to suppress 50% of cell death due to HIV infection) [1, 3]: 0.029 µg/mL
SI (CC50 /ED50) [1]: 1565
CC50 (50% cytotoxic concentration) [2]: 44.60 µg/mL

N=C(N)NCCC[C@H](NC(=O)[C@H](CS)NC(=O)[C@H](CCCCN)NC(=O)[C@H](CCCNC(=N)N)NC(=O)[C@H](Cc1ccc(O)cc1)NC(=O)[C@H](CS)NC(=O)[C@H](Cc1ccc(O)cc1)NC(=O)CNC(=O)[C@H](CCCCN)NC(=O)[C@H](Cc1ccc(O)cc1)NC(=O)[C@H](CS)NC(=O)[C@H](CCCCN)NC(=O)[C@H](CCCNC(=N)N)NC(=O)[C@H](Cc1ccc(O)cc1)NC(=O)[C@H](CS)NC(=O)[C@H](Cc1c[nH]c2ccccc12)NC(=O)[C@H](CCCNC(=N)N)NC(=O)[C@@H](N)CCCNC(=N)N)C(N)=O [Reduced form of polypeptide (1)] (H-RRWCYRKCYKGYCYRKCR-NH2)
EC50 (concentration to suppress 50% of cell death due to HIV infection) [1, 3]: 0.0052 µg/mL
CC50 (50% cytotoxic concentration) [2]: 41.27 µg/mL

N=C(N)NCCC[C@H](NC(=O)[C@H](CS)NC(=O)[C@H](CCCCN)NC(=O)[C@H](CCCNC(=N)N)NC(=O)[C@H](Cc1ccc(O)cc1)NC(=O)[C@@H]1CCCN1C(=O)[C@@H](CCCCN)NC(=O)[C@H](CCCCN)NC(=O)[C@H](CCCNC(=N)N)NC(=O)[C@H](Cc1ccc(O)cc1)NC(=O)[C@H](CS)NC(=O)[C@H](Cc1c[nH]c2ccccc12)NC(=O)[C@H](CCCNC(=N)N)NC(=O)[C@@H](N)CCCNC(=N)N)C(N)=O [Reduced form of] (HELM PEPTIDE1{R.R.W.C.Y.R.K.[dK].P.Y.R.K.C.R.[am]}$$$$V2.0)
EC50 (concentration to suppress 50% of cell death due to HIV infection) [1, 3]: 0.040 µg/mL
CC50 (50% cytotoxic concentration) [2]: 41.17 µg/mL

Dextran sulfate [reference compound]
EC50 (concentration to suppress 50% of cell death due to HIV infection) [1, 3]: 0.68 µg/mL
